Reference: patent publication US20240279278A1, “NMU RECEPTOR 2 AGONISTS” (Boehringer Ingelheim International GmbH, priority 2023, published 2024)
In brackets after ≈: the same amount, converted by molar mass. Residues, ends and D or L forms follow the SMILES beside them.

Columns and labels:
human NMUR1 receptor = target: T1, human NMUR1 receptor (Homo sapiens, UniProt Q9HB89); assay: Radioligand binding competition assay (RLB), human NMUR1 receptor binding (SPA, [125I]-Neuromedin U-25); settings: CHO-K1 hNMUR1 cell membranes, 4 hours at RT
T1 construct: host or cells: CHO-K1
T1 sequence (Q9HB89 24-426 limits assumed): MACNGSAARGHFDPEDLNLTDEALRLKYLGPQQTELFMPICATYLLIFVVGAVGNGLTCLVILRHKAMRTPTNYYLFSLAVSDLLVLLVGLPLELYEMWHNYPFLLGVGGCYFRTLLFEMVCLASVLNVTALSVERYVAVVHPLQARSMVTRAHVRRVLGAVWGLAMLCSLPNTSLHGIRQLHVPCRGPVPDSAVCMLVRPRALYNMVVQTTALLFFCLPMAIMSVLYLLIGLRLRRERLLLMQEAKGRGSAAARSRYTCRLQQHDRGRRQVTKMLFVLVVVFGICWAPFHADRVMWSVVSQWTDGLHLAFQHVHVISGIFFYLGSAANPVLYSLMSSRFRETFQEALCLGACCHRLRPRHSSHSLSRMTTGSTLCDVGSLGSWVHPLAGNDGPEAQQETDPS
Method in brief: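 SPA competition binding on CHO-K1 membranes stably expressing human NMUR1 (about 1.0 μg protein) on WGA-PVT beads, using about 30 pM [125I]-Neuromedin U-25. Incubation was 4 h at RT in 25 mM Hepes pH 7.0, 5 mM MgCl2, 1 mM CaCl2, saponin and 0.1% BSA. Non-specific binding was defined by 100 nM unlabeled hNMU-25; values assume one-site reversible equilibrium binding.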

physchem = format: physicochemical
Method in brief: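 Peptide TFA salts were shaken at a nominal 10 mg/mL in 0.1 M phosphate buffer, pH 6 to 8, for 2 h at room temperature and then filtered. Reversed-phase HPLC peak area was compared with a 1 mg/mL control in buffer or DMSO to give solubility. The pH of each sample was recorded.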

human NMUR2 receptor = human NMUR2 receptor (Homo sapiens, UniProt Q9GZQ4); assay: IP1 Gq HTRF assay, activation of human NMUR2 in human plasma; format: cell-based; parameters: expressed in transfected cells; host or cells: CHO-K1; settings: CHO-K1 cells expressing human NMUR2, 100% human plasma; read-out: EC50 (hNMUR2) human plasma
Sequence of human NMUR2 receptor (Q9GZQ4 whole entry): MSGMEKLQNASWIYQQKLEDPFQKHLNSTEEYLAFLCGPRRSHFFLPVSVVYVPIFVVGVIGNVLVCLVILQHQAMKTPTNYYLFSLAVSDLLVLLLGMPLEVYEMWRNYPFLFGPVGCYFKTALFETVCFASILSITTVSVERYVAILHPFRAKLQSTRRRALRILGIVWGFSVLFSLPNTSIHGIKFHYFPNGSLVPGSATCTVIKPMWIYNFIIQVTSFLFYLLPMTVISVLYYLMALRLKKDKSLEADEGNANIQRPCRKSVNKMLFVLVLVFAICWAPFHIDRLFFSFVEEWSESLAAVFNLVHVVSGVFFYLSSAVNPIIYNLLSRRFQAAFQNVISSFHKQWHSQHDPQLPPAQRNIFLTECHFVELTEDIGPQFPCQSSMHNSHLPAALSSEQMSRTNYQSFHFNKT
Method in brief: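 CHO-K1 cells stably expressing human NMUR2 exposed to peptide agonists (8-point dose-response) in 100% human plasma with 50 mM LiCl, 1% DMSO, for 1 h at 37° C. IP1 accumulation read by HTRF competition (665/620 nm ratio). EC50 from 4-parameter sigmoidal fit.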

SMILES	Ki (human NMUR1 receptor) [nM]	solubility at 2 h (physchem; pH 6.9) [µg/mL]	EC50 (human NMUR2 receptor) [nM]	solubility at 2 h (physchem; pH 7) [µg/mL]
CCCC[C@H](NC(=O)[C@H](CC(C)C)N(C)C(=O)[C@H](Cc1ccccc1)NC(=O)[C@H](Cc1ccc(O)cc1)NC(=O)CN1CCN(CCNC(=O)CN(C)C(=O)CN(C)C(=O)CN(C)C(=O)CN(C)C(=O)CN(C)C(=O)CN(C)C(=O)CN(C)C(=O)CN(C)C(=O)CN(C)C(=O)CN(C)C(=O)CN(C)C(=O)CN(C)C(=O)CN(C)C(=O)CN(C)C(=O)CN(C)C(=O)CC[C@H](NC(=O)CC[C@H](NC(=O)CC[C@H](NC(=O)CCCCCCCCCCCCCCCCCCC(=O)O)C(=O)O)C(=O)O)C(=O)O)CC1)C(=O)N[C@@H](CCN)C(=O)N1CCC[C@H]1C(=O)N[C@@H](CCCNC(=N)N)C(=O)NCC(N)=O [Compound 42, C20DA-gGlu3-Sar15-AEPipAc-Tyr-Phe-NMeLeu-Nle-Dbu-Pro-Arg-Gly-NH2] (HELM PEPTIDE1{[O=C(O)CCCCCCCCCCCCCCCCCCC(=O)[*:2]].[gGlu].[gGlu].[gGlu].[Sar].[Sar].[Sar].[Sar].[Sar].[Sar].[Sar].[Sar].[Sar].[Sar].[Sar].[Sar].[Sar].[Sar].[Sar].[O=C(CN1CCN(CCN[*:1])CC1)[*:2]].Y.F.[meL].[Nle].[Dab].P.R.G.[am]}$$$$V2.0)	> 10000	5300 (≈ 1810 µM)	5.8	–
CCCC[C@H](NC(=O)[C@H](CC(C)C)N(C)C(=O)[C@H](Cc1ccccc1)NC(=O)[C@H](Cc1ccc(O)cc1)NC(=O)CN1CCN(CCNC(=O)CN(C)C(=O)CN(C)C(=O)CN(C)C(=O)CN(C)C(=O)CN(C)C(=O)CN(C)C(=O)CN(C)C(=O)CN(C)C(=O)CN(C)C(=O)CN(C)C(=O)CN(C)C(=O)CN(C)C(=O)CN(C)C(=O)CN(C)C(=O)CN(C)C(=O)CC[C@H](NC(=O)CC[C@H](NC(=O)CC[C@H](NC(=O)CCCCCCCCCCCCCCCCCCC(=O)O)C(=O)O)C(=O)O)C(=O)O)CC1)C(=O)N[C@@H](CCN)C(=O)N(C)[C@@H](C)C(=O)N[C@@H](CCCNC(=N)N)C(=O)NCC(N)=O [Compound 43, C20DA-gGlu3-Sar15-AEPipAc-Tyr-Phe-NMeLeu-Nle-Dbu-NMeAla-Arg-Gly-NH2] (HELM PEPTIDE1{[O=C(O)CCCCCCCCCCCCCCCCCCC(=O)[*:2]].[gGlu].[gGlu].[gGlu].[Sar].[Sar].[Sar].[Sar].[Sar].[Sar].[Sar].[Sar].[Sar].[Sar].[Sar].[Sar].[Sar].[Sar].[Sar].[O=C(CN1CCN(CCN[*:1])CC1)[*:2]].Y.F.[meL].[Nle].[Dab].[meA].R.G.[am]}$$$$V2.0)	> 10000	–	10.1	5600 (≈ 1920 µM)
